Assay: xn = mol fraction of the nth substance listed
Conditions: Liquid, Vibrating tube method

CCCCCCCCCC [decane] + CCCO
mass density [kg/m3]
Conditions | 323.15 K | 333.15 K
100 kPa, x2 = 0.1391 | – | 698
100 kPa, x2 = 0.1907 | – | 699.22
100 kPa, x2 = 0.3001 | – | 702.36
100 kPa, x2 = 0.4326 | – | 706.94
100 kPa, x2 = 0.6863 | – | 723.34
100 kPa, x2 = 0.8711 | – | 744.53
1000 kPa, x2 = 0.8711 | – | 745.47
1010 kPa, x2 = 0.3001 | – | 703.4
1010 kPa, x2 = 0.4326 | – | 708.03
1010 kPa, x2 = 0.6863 | – | 724.38
1020 kPa, x2 = 0.1391 | – | 699.13
1020 kPa, x2 = 0.1907 | – | 700.31
2000 kPa, x2 = 0.1391 | – | 700.15
2000 kPa, x2 = 0.1907 | – | 701.33
2000 kPa, x2 = 0.6863 | – | 725.39
2010 kPa, x2 = 0.4326 | – | 709.06
2020 kPa, x2 = 0.3001 | – | 704.44
2020 kPa, x2 = 0.8711 | – | 746.44
3000 kPa, x2 = 0.3001 | – | 705.44
3010 kPa, x2 = 0.1391 | – | 701.15
3010 kPa, x2 = 0.1907 | – | 702.33
3010 kPa, x2 = 0.4326 | – | 710.06
3010 kPa, x2 = 0.6863 | – | 726.41
3010 kPa, x2 = 0.8711 | – | 747.43
4000 kPa, x2 = 0.1391 | – | 702.13
4000 kPa, x2 = 0.1907 | – | 703.34
4010 kPa, x2 = 0.4326 | – | 711.1
4010 kPa, x2 = 0.8711 | – | 748.4
4020 kPa, x2 = 0.3001 | – | 706.45
4020 kPa, x2 = 0.6863 | – | 727.43
5000 kPa, x2 = 0.1907 | – | 704.33
5000 kPa, x2 = 0.3001 | – | 707.44
5010 kPa, x2 = 0.1391 | – | 703.13
5010 kPa, x2 = 0.6863 | – | 728.46
5020 kPa, x2 = 0.4326 | – | 712.1
5020 kPa, x2 = 0.8711 | – | 749.4
6000 kPa, x2 = 0.1391 | – | 704.1
6000 kPa, x2 = 0.1907 | – | 705.29
6000 kPa, x2 = 0.3001 | – | 708.43
6010 kPa, x2 = 0.4326 | – | 713.11
6010 kPa, x2 = 0.6863 | – | 729.45
6020 kPa, x2 = 0.8711 | – | 750.38
7000 kPa, x2 = 0.1391 | – | 705.07
7000 kPa, x2 = 0.4326 | – | 714.11
7000 kPa, x2 = 0.8711 | – | 751.38
7010 kPa, x2 = 0.3001 | – | 709.43
7020 kPa, x2 = 0.1907 | – | 706.27
7020 kPa, x2 = 0.6863 | – | 730.46
8000 kPa, x2 = 0.1391 | – | 706.06
8000 kPa, x2 = 0.4326 | – | 715.11
8010 kPa, x2 = 0.1907 | – | 707.25
8010 kPa, x2 = 0.6863 | – | 731.46
8020 kPa, x2 = 0.3001 | – | 710.42
8020 kPa, x2 = 0.8711 | – | 752.35
9010 kPa, x2 = 0.1391 | – | 707
9010 kPa, x2 = 0.1907 | – | 708.23
9010 kPa, x2 = 0.3001 | – | 711.39
9010 kPa, x2 = 0.4326 | – | 716.11
9010 kPa, x2 = 0.6863 | – | 732.47
9010 kPa, x2 = 0.8711 | – | 753.31
10000 kPa, x2 = 0.1391 | – | 707.95
10000 kPa, x2 = 0.4326 | 726.96 | 717.1
10010 kPa, x2 = 0.3001 | – | 712.39
10010 kPa, x2 = 0.6863 | 743.54 | 733.45
10020 kPa, x2 = 0.1907 | – | 709.15
10020 kPa, x2 = 0.8711 | 764.05 | 754.28
11000 kPa, x2 = 0.1391 | 717.57 | –
11000 kPa, x2 = 0.1907 | 719.05 | 710.11
11010 kPa, x2 = 0.1391 | – | 708.9
11010 kPa, x2 = 0.3001 | 723.06 | –
11010 kPa, x2 = 0.4326 | 727.85 | –
11010 kPa, x2 = 0.6863 | 744.43 | 734.43
11020 kPa, x2 = 0.3001 | – | 713.35
11020 kPa, x2 = 0.4326 | – | 718.06
11020 kPa, x2 = 0.8711 | 764.93 | 755.24
12000 kPa, x2 = 0.1907 | – | 711.08
12000 kPa, x2 = 0.3001 | 723.94 | –
12000 kPa, x2 = 0.4326 | – | 719.03
12010 kPa, x2 = 0.1391 | 718.43 | 709.82
12010 kPa, x2 = 0.6863 | 745.32 | 735.38
12020 kPa, x2 = 0.1907 | 719.94 | –
12020 kPa, x2 = 0.3001 | – | 714.31
12020 kPa, x2 = 0.4326 | 728.74 | –
12020 kPa, x2 = 0.8711 | 765.79 | 756.17
13000 kPa, x2 = 0.1391 | 719.28 | –
13000 kPa, x2 = 0.8711 | – | 757.09
13010 kPa, x2 = 0.1391 | – | 710.75
13010 kPa, x2 = 0.1907 | 720.8 | 712
13010 kPa, x2 = 0.3001 | 724.81 | –
13010 kPa, x2 = 0.4326 | – | 719.98
13010 kPa, x2 = 0.6863 | 746.21 | 736.35
13020 kPa, x2 = 0.3001 | – | 715.25
13020 kPa, x2 = 0.4326 | 729.62 | –
13020 kPa, x2 = 0.8711 | 766.65 | –
14000 kPa, x2 = 0.1907 | – | 712.92
14000 kPa, x2 = 0.3001 | 725.66 | –
14000 kPa, x2 = 0.4326 | 730.47 | –
14000 kPa, x2 = 0.6863 | 747.08 | –
14000 kPa, x2 = 0.8711 | – | 758.02
14010 kPa, x2 = 0.1391 | 720.12 | 711.65
14010 kPa, x2 = 0.3001 | – | 716.18
14020 kPa, x2 = 0.1907 | 721.64 | –
14020 kPa, x2 = 0.4326 | – | 720.92
14020 kPa, x2 = 0.6863 | – | 737.27
14020 kPa, x2 = 0.8711 | 767.51 | –
15000 kPa, x2 = 0.4326 | 731.33 | –
15000 kPa, x2 = 0.6863 | 747.92 | –
15000 kPa, x2 = 0.8711 | 768.36 | –
15010 kPa, x2 = 0.1391 | 720.95 | 712.53
15010 kPa, x2 = 0.1907 | – | 713.82
15010 kPa, x2 = 0.3001 | 726.5 | –
15010 kPa, x2 = 0.4326 | – | 721.82
15010 kPa, x2 = 0.6863 | – | 738.18
15010 kPa, x2 = 0.8711 | – | 758.93
15020 kPa, x2 = 0.1907 | 722.47 | –
15020 kPa, x2 = 0.3001 | – | 717.1
16000 kPa, x2 = 0.1907 | 723.29 | –
16000 kPa, x2 = 0.6863 | 748.78 | –
16000 kPa, x2 = 0.8711 | 769.18 | –
16010 kPa, x2 = 0.1391 | 721.76 | 713.4
16010 kPa, x2 = 0.1907 | – | 714.7
16010 kPa, x2 = 0.3001 | 727.33 | 717.99
16010 kPa, x2 = 0.4326 | 732.15 | 722.73
16010 kPa, x2 = 0.6863 | – | 739.1
16020 kPa, x2 = 0.8711 | – | 759.81
17000 kPa, x2 = 0.1391 | 722.56 | –
17000 kPa, x2 = 0.6863 | 749.59 | 740
17000 kPa, x2 = 0.8711 | – | 760.7
17010 kPa, x2 = 0.1907 | 724.12 | –
17010 kPa, x2 = 0.3001 | – | 718.88
17010 kPa, x2 = 0.4326 | 732.96 | 723.6
17010 kPa, x2 = 0.8711 | 770.01 | –
17020 kPa, x2 = 0.1391 | – | 714.27
17020 kPa, x2 = 0.1907 | – | 715.58
17020 kPa, x2 = 0.3001 | 728.15 | –
18000 kPa, x2 = 0.1391 | – | 715.12
18000 kPa, x2 = 0.1907 | – | 716.42
18000 kPa, x2 = 0.3001 | – | 719.72
18000 kPa, x2 = 0.4326 | – | 724.49
18000 kPa, x2 = 0.6863 | – | 740.88
18010 kPa, x2 = 0.1391 | 723.35 | –
18010 kPa, x2 = 0.3001 | 728.94 | –
18010 kPa, x2 = 0.4326 | 733.77 | –
18010 kPa, x2 = 0.6863 | 750.41 | –
18010 kPa, x2 = 0.8711 | 770.81 | –
18020 kPa, x2 = 0.1907 | 724.91 | –
18020 kPa, x2 = 0.8711 | – | 761.56
19000 kPa, x2 = 0.4326 | 734.57 | –
19010 kPa, x2 = 0.1391 | – | 715.93
19010 kPa, x2 = 0.1907 | 725.67 | 717.24
19010 kPa, x2 = 0.3001 | 729.72 | –
19010 kPa, x2 = 0.4326 | – | 725.32
19010 kPa, x2 = 0.6863 | 751.21 | 741.72
19010 kPa, x2 = 0.8711 | 771.61 | –
19020 kPa, x2 = 0.1391 | 724.11 | –
19020 kPa, x2 = 0.3001 | – | 720.57
19020 kPa, x2 = 0.8711 | – | 762.39
20000 kPa, x2 = 0.3001 | – | 721.37
20010 kPa, x2 = 0.1391 | 724.85 | –
20010 kPa, x2 = 0.1907 | 726.42 | 718.03
20010 kPa, x2 = 0.4326 | 735.37 | –
20010 kPa, x2 = 0.6863 | – | 742.58
20010 kPa, x2 = 0.8711 | 772.39 | 763.23
20020 kPa, x2 = 0.1391 | – | 716.72
20020 kPa, x2 = 0.3001 | 730.47 | –
20020 kPa, x2 = 0.4326 | – | 726.17
20020 kPa, x2 = 0.6863 | 752 | –
